Measured values taken from ChEMBL document CHEMBL1201861, “Genomics of Drug Sensitity in Cancer screening data, Wellcome Trust Sanger Institute”.

What was measured:
Assay in all cases: cells
CTB-1 = assay type: functional, cell-based, Homo sapiens; settings: Homo sapiens, CTB-1
D-502MG = assay type: functional, cell-based, Homo sapiens; settings: Homo sapiens, D-502MG
EM-2 = assay type: functional, cell-based, Homo sapiens; settings: Homo sapiens, EM-2;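 also: growth inhibition of EM-2 cells, read out with a cell viability assay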
ES5 = assay type: functional, cell-based, Homo sapiens; settings: Homo sapiens, ES5;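 also: growth inhibition of human ES5 cells, read out by a cell viability assay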
EW-3 = assay type: functional, cell-based, Homo sapiens; settings: Homo sapiens, EW-3;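 also: cell viability assay read-out, IC50 reflects inhibition of growth of the EW-3 cells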
GAK = assay type: functional, cell-based, Homo sapiens; settings: Homo sapiens, GAK
GB-1 = assay type: functional, cell-based, Homo sapiens; settings: Homo sapiens, GB-1;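 also: growth of GB-1 cells judged by a viability assay, IC50 marks the concentration inhibiting growth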
GT3TKB = assay type: functional, cell-based, Homo sapiens; settings: Homo sapiens, GT3TKB;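 also: growth inhibition of the cell line, read out with a cell viability assay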
HCC1187 = assay type: functional, cell-based, Homo sapiens; settings: Homo sapiens, HCC1187;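 also: growth inhibition of HCC1187 cells, read out with a cell viability assay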
IA-LM = assay type: functional, cell-based; settings: Homo sapiens;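 also: cell viability assay measuring growth inhibition of human IA-LM cells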
IST-MEL1 = assay type: functional, cell-based, Homo sapiens; settings: Homo sapiens, IST-MEL1;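 also: growth inhibition of the cell line, read out with a cell viability assay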
K5 = assay type: functional, cell-based, Homo sapiens; settings: Homo sapiens, K5
KARPAS-299 = assay type: functional, cell-based, Homo sapiens; settings: Homo sapiens, KARPAS-299
KE-37 = assay type: functional, cell-based, Homo sapiens; settings: Homo sapiens, KE-37;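 also: growth inhibition of KE-37 cells, read out with a cell viability assay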
KG-1 = assay type: functional, cell-based, Homo sapiens; settings: Homo sapiens, KG-1;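 also: growth inhibition of KG-1 cells, read out by a cell viability assay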
KINGS-1 = assay type: functional, cell-based, Homo sapiens; settings: Homo sapiens, KINGS-1;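 also: cell viability assay measuring suppression of KINGS-1 cell growth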
KLE = assay type: functional, cell-based; settings: Homo sapiens;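 also: growth inhibition of human KLE cells, read out with a cell viability assay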
LB996-RCC = assay type: functional, cell-based, Homo sapiens; settings: Homo sapiens, LB996-RCC
LS-123 = assay type: functional, cell-based, Homo sapiens; settings: Homo sapiens, LS-123
MFM-223 = assay type: functional, cell-based, Homo sapiens; settings: Homo sapiens, MFM-223
ML-2 = assay type: functional, cell-based, Homo sapiens; settings: Homo sapiens, ML-2;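 also: growth inhibition of ML-2 cells, measured with a cell viability readout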
MN-60 = assay type: functional, cell-based, Homo sapiens; settings: Homo sapiens, MN-60;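 also: growth inhibition of the MN-60 cell line, determined with a cell viability assay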
MOLT-16 = assay type: functional, cell-based, Homo sapiens; settings: Homo sapiens, MOLT-16;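 also: growth inhibition of human MOLT-16 cells, read out with a cell viability assay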
MOLT-4 = assay type: functional, cell-based, Homo sapiens; settings: Homo sapiens, MOLT-4;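 also: growth inhibition of MOLT-4 cells, determined with a cell viability readout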
NB6 = assay type: functional, cell-based, Homo sapiens; settings: Homo sapiens, NB6;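 also: growth inhibition of NB6 cells, read out by a cell viability assay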
NCI-H1092 = assay type: functional, cell-based, Homo sapiens; settings: Homo sapiens, NCI-H1092;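 also: cell growth inhibition measured with a cell viability assay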
NCI-H1395 = assay type: functional, cell-based, Homo sapiens; settings: Homo sapiens, NCI-H1395;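 also: cell viability assay read-out quantifying reduced proliferation of human NCI-H1395 cells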
NCI-H1581 = assay type: functional, cell-based, Homo sapiens; settings: Homo sapiens, NCI-H1581;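 also: cell growth inhibition read out by a viability assay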
NCI-H1650 = assay type: functional, cell-based, Homo sapiens; settings: Homo sapiens, NCI-H1650;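 also: growth inhibition of human NCI-H1650 cells measured by a cell viability assay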
NCI-H1770 = assay type: functional, cell-based, Homo sapiens; settings: Homo sapiens, NCI-H1770;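 also: growth inhibition of NCI-H1770 cells determined with a viability readout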
NCI-H2126 = assay type: functional, cell-based, Homo sapiens; settings: Homo sapiens, NCI-H2126;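 also: growth inhibition of the cancer cell line, determined with a cell viability readout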
NCI-H526 = assay type: functional, cell-based, Homo sapiens; settings: Homo sapiens, NCI-H526;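 also: growth inhibition of the human NCI-H526 cell line, measured by a cell viability assay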
NCI-H720 = assay type: functional, cell-based, Homo sapiens; settings: Homo sapiens, NCI-H720;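 also: growth inhibition of human NCI-H720 cells determined by a cell viability assay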
NOS-1 = assay type: functional, cell-based, Homo sapiens; settings: Homo sapiens, NOS-1;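 also: growth inhibition of the human NOS-1 cell line, read out with a cell viability assay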
OCI-AML2 = assay type: functional, cell-based, Homo sapiens; settings: Homo sapiens, OCI-AML2;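 also: growth inhibition of OCI-AML2 cells, read out with a cell viability assay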
PSN1 = assay type: functional, cell-based, Homo sapiens; settings: Homo sapiens, PSN1;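 also: suppression of growth of human PSN1 cells, read out by a cell viability assay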
RKO = assay type: functional, cell-based, Homo sapiens; settings: Homo sapiens, RKO;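 also: growth inhibition of human RKO cells, read out with a cell viability assay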
SF-539 = assay type: functional, cell-based, Homo sapiens; settings: Homo sapiens, SF-539;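 also: Read-out is a cell viability assay, with IC50 reflecting inhibition of cell growth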
SNB-75 = assay type: functional, cell-based, Homo sapiens; settings: Homo sapiens, SNB-75;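 also: cell viability assay measuring growth inhibition of human SNB-75 cells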
697 = assay type: functional, cell-based, Homo sapiens; settings: Homo sapiens
ATN-1 = assay type: functional, cell-based, Homo sapiens; settings: Homo sapiens, ATN-1;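 also: growth inhibition of human ATN-1 cells, read out with a cell viability assay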
BB30-HNC = assay type: functional, cell-based, Homo sapiens; settings: Homo sapiens, BB30-HNC;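 also: growth inhibition of the cultured cell line, read out by a cell viability assay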
BB49-HNC = assay type: functional, cell-based, Homo sapiens; settings: Homo sapiens, BB49-HNC;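 also: cell viability assay read-out, reported as inhibition of BB49-HNC cell growth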
BV-173 = assay type: functional, cell-based, Homo sapiens; settings: Homo sapiens, BV-173
TE-10 = assay type: functional, cell-based, Homo sapiens; settings: Homo sapiens, TE-10;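 also: growth inhibition of TE-10 cells, measured by a cell viability assay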
U-266 = assay type: functional, cell-based, Homo sapiens; settings: Homo sapiens, U-266
U-87 MG = assay type: functional, cell-based, Homo sapiens, U-87MG ATCC; settings: Homo sapiens, U-87 MG;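 also: growth inhibition of the cells measured with a viability assay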
VA-ES-BJ = assay type: functional, cell-based, Homo sapiens; settings: Homo sapiens, VA-ES-BJ;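 also: growth inhibition of the VA-ES-BJ cell line, read out by a cell viability assay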
no-11 = assay type: functional, cell-based, Homo sapiens; settings: Homo sapiens;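 also: growth inhibition of human NO-11 cells, read out with a cell viability assay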
COLO-668 = assay type: functional, cell-based, Homo sapiens; settings: Homo sapiens, COLO-668

COc1cc(N2CCC(N3CCN(C)CC3)CC2)ccc1Nc1ncc(Cl)c(Nc2ccccc2S(=O)(=O)C(C)C)n1 [TAE-684]
IC50 (CTB-1): > 2000 nM | IC50 (D-502MG): > 2000 nM | IC50 (EM-2): 1850 nM | IC50 (ES5): > 2000 nM | IC50 (EW-3): > 2000 nM | IC50 (GAK): […] | IC50 (GB-1): 389 nM | IC50 (GT3TKB): > 2000 nM | IC50 (HCC1187): 1860 nM | IC50 (IA-LM): > 2000 nM | IC50 (IST-MEL1): > 2000 nM | IC50 (K5): 1060 nM | IC50 (KARPAS-299): 23.8 nM | IC50 (KE-37): > 2000 nM | IC50 (KG-1): 396 nM | IC50 (KINGS-1): > 2000 nM | IC50 (KLE): > 2000 nM | IC50 (LB996-RCC): 694 nM | IC50 (LS-123): 1520 nM | IC50 (MFM-223): > 2000 nM | IC50 (ML-2): 490 nM | IC50 (MN-60): > 2000 nM | IC50 (MOLT-16): 876 nM | IC50 (MOLT-4): > 2000 nM | IC50 (NB6): > 2000 nM | IC50 (NCI-H1092): > 2000 nM | IC50 (NCI-H1395): > 2000 nM | IC50 (NCI-H1581): > 2000 nM | IC50 (NCI-H1650): > 2000 nM | IC50 (NCI-H1770): > 2000 nM | IC50 (NCI-H2126): > 2000 nM | IC50 (NCI-H526): > 2000 nM | IC50 (NCI-H720): 1360 nM | IC50 (NOS-1): 103 nM | IC50 (OCI-AML2): 483 nM | IC50 (PSN1): 196 nM | IC50 (RKO): 1500 nM | IC50 (SF-539): < 7.81 nM | IC50 (SNB-75): > 2000 nM | IC50 697: 432 nM | IC50 (ATN-1): 333 nM | IC50 (BB30-HNC): 1130 nM | IC50 (BB49-HNC): > 2000 nM | IC50 (BV-173): > 2000 nM | IC50 (TE-10): 715 nM | IC50 (U-266): 1740 nM | IC50 (U-87 MG): > 2000 nM | IC50 (VA-ES-BJ): > 2000 nM | IC50 (no-11): > 2000 nM | IC50 (COLO-668): > 2000 nM
